Results on one compound are retold here after article PMC9203742 (Nature Communications, 2022).

Test [1] addresses T1, WT mGlu1 (Rattus norvegicus, UniProt P23385).
T1 construct: expressed in transfected cells; host or cells: HEK293
In kind it is cell-based.

Test [2] addresses T2, mGlu1 P58H/N264H mutant (Rattus norvegicus, UniProt P23385, N264H/P58H).
T2 construct: expressed in transfected cells; host or cells: HEK293
Nature of the test: Fura-2 Ca2+ imaging in HEK293 cells expressing mGlu1 P58H/N264H. It is filed as cell-based.

Test [3] deals with T3, mGlu1 A59H/N264H mutant (Rattus norvegicus, UniProt P23385, A59H/N264H).
T3 construct: expressed in transfected cells; host or cells: HEK293
The experiment in a line: Fura-2 Ca2+ imaging in HEK293 cells expressing mGlu1 A59H/N264H. It is filed as cell-based.

The target of test [4] is T4, mGlu1 K61H/N264H mutant (Rattus norvegicus, UniProt P23385, K61H/N264H).
T4 construct: expressed in transfected cells; host or cells: HEK293
Nature of the test: Fura-2 Ca2+ imaging in HEK293 cells expressing mGlu1 K61H/N264H. It is filed as cell-based.

Test [5] concerns the target T5, mGlu1 P57H/N264H mutant (Rattus norvegicus, UniProt P23385, N264H/P57H).
T5 construct: expressed in transfected cells; host or cells: HEK293
Nature of the test: Fura-2 Ca2+ imaging in HEK293 cells expressing mGlu1 P57H/N264H. In kind it is cell-based.

Test [6] has as its target T6, mGlu1 E60H/N264H mutant (Rattus norvegicus, UniProt P23385, E60H/N264H).
T6 construct: expressed in transfected cells; host or cells: HEK293
The experiment in a line: Fura-2 Ca2+ imaging in HEK293 cells expressing mGlu1 E60H/N264H. In kind it is cell-based.

Test [7] relates to HEK293 cells, vector control. The experiment in a line: Fura-2 Ca2+ imaging in HEK293 cells transfected with control vector (Vec). In kind it is cell-based. Conditions: single-cell values #1-#20.
The subject of test [8] is mGlu1 construct not given. Nature of the test: Fura-2 Ca2+ imaging in HEK293 cells, source data Suppl Fig1, left group (c0-c8); construct not given. It is filed as cell-based, rat. To be noted: single-cell values, cells #15-#20; left group of third block. An excerpt:
(§1) Supplement 41467_2022_30828_MOESM6_ESM.zip/Ojima et al_source data_Suppl Fig.xlsx, sheet "Suppl Fig1" | column: Glu; NiCl2; CuCl2; ZnCl2; CdCl2; Na2PdCl2; Pd(bpy)

For test [9], the system named is HEK293 cells, vector control. The experiment in a line: Fura-2 Ca2+ imaging in HEK293 cells transfected with control vector (Vec). In kind it is cell-based. To be noted: Fig.1e. An excerpt: Supplement 41467_2022_30828_MOESM6_ESM.zip/Ojima et al_source data_Main Figure.xlsx, sheet "Fig.1e" | column: Vec
Test [10] addresses T7, mGlu1 A59H/A265H mutant (Rattus norvegicus, UniProt P23385, A265H/A59H).
T7 construct: expressed in transfected cells; host or cells: HEK293
The experiment in a line: Fura-2 Ca2+ imaging in HEK293 cells expressing mGlu1 A59H/A265H. It is filed as cell-based. Conditions: single-cell values.

Test [11] concerns mGlu1 construct not given. The experiment in a line: Fura-2 Ca2+ imaging in HEK293 cells, source data Suppl Fig1, middle group (c9-c17); construct not given. In kind it is cell-based, rat. Conditions: single-cell values, cells #15-#20; middle group of third block.
Source text: as §1

Test [12] deals with T7, mGlu1 A59H/A265H mutant. Nature of the test: Fura-2 Ca2+ imaging in HEK293 cells expressing mGlu1 A59H/A265H. It is filed as cell-based. To be noted: Fig.1e.
In test [13] the target is T8, mGlu1 A59H/G266H mutant (Rattus norvegicus, UniProt P23385, A59H/G266H).
T8 construct: expressed in transfected cells; host or cells: HEK293
Nature of the test: Fura-2 Ca2+ imaging in HEK293 cells expressing mGlu1 A59H/G266H. It is filed as cell-based. Conditions: single-cell values.

Test [14] has as its system mGlu1 construct not given. The experiment in a line: Fura-2 Ca2+ imaging in HEK293 cells, source data Suppl Fig1, right group (c18-c26); construct not given. Conditions: single-cell values, cells #15-#20; right group of third block. It is filed as cell-based, rat.
Source text: as §1

In test [15] the target is T8, mGlu1 A59H/G266H mutant. The experiment in a line: Fura-2 Ca2+ imaging in HEK293 cells expressing mGlu1 A59H/G266H. In kind it is cell-based. Conditions: Fig.1e.

Each structure is given as a SMILES string. Values joined by “and” are separate entries in the source; they are usually repeats but may differ in a detail not shown here. Equal values may be shown once.
Wherever Ca2+ response (delta ratio), A59H/G266H is given: test concentration or dose not given here.
Wherever Ca2+ response (delta ratio), WT is given: test concentration or dose not given here.
Wherever Ca2+ response of individual cells (source data Suppl Fig1), Vec is given: test concentration or dose not given here.
Wherever Ca2+ response of individual cells (source data Suppl Fig1), WT is given: test concentration or dose not given here.

T6 sequence (P23385 19-1199 E60H/N264H): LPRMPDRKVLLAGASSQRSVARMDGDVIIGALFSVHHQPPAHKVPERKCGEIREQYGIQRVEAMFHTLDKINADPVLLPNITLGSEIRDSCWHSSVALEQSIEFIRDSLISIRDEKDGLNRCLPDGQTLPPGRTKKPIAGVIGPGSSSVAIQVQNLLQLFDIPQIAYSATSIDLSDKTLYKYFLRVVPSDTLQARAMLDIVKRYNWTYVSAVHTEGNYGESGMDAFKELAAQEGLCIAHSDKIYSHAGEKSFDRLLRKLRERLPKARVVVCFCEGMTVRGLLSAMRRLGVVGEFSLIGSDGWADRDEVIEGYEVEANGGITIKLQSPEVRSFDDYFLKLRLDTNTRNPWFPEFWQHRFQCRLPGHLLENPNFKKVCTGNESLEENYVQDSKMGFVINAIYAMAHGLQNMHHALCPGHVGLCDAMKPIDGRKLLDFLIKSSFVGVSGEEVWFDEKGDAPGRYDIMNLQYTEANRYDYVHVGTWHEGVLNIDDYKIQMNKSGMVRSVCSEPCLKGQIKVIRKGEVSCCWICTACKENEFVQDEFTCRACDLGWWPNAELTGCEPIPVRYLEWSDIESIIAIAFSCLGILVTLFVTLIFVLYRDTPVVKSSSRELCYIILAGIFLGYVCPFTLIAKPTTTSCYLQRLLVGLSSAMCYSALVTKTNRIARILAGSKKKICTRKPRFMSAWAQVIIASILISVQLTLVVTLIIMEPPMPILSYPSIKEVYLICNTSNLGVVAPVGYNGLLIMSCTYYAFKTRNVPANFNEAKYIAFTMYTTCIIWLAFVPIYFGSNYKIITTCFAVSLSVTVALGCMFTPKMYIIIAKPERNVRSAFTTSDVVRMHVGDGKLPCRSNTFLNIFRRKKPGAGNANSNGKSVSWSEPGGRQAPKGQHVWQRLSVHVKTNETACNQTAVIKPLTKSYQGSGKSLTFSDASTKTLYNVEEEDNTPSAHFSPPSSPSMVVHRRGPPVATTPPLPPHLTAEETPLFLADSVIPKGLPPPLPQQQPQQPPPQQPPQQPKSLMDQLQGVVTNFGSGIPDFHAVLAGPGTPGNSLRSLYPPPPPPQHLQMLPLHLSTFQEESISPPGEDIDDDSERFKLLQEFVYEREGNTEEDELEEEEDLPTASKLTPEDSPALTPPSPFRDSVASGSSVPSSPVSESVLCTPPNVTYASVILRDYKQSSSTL
T1 sequence (P23385 19-1199): as the sequence (P23385 19-1199 E60H/N264H) above, with H42E, H246N counted along it
T8 sequence (P23385 19-1199 A59H/G266H): as the sequence (P23385 19-1199 E60H/N264H) above, with A41H, H42E, H246N, G248H counted along it
T7 sequence (P23385 19-1199 A59H/A265H): as the sequence (P23385 19-1199 E60H/N264H) above, with A41H, H42E, H246N, A247H counted along it
T4 sequence (P23385 19-1199 K61H/N264H): as the sequence (P23385 19-1199 E60H/N264H) above, with H42E, K43H counted along it
T3 sequence (P23385 19-1199 A59H/N264H): as the sequence (P23385 19-1199 E60H/N264H) above, with A41H, H42E counted along it
T2 sequence (P23385 19-1199 P58H/N264H): as the sequence (P23385 19-1199 E60H/N264H) above, with P40H, H42E counted along it
T5 sequence (P23385 19-1199 P57H/N264H): as the sequence (P23385 19-1199 E60H/N264H) above, with P39H, H42E counted along it

`[Cl][Ni][Cl]` [NiCl2]: the “Ca2+ response (delta ratio), WT” value in test [1] (Fig.1e) was 0.03319. Further, in test [1] (single-cell values #1-#20, WT), the “Ca2+ response of individual cells (source data Suppl Fig1), WT” value was -0.005477 and -0.01458 and 0.001892 and -0.01835 and 0.1195 and 0.01671 and 0.05379 and 0.4457 and 0.004608 and -0.002423 and 0.004238 and 0.01116 and 0.1174 and -0.002515 and -0.001223 and -0.001015 and -0.0129 and -0.004708 and 0.01682 and -0.06482. In test [2] (Fig.1e), the “Ca2+ response (delta ratio), P58H/N264H” value came out at 0.05353. In addition, the “Ca2+ response of individual cells (source data Suppl Fig1), P58H/N264H” value in test [2] (single-cell values #1-#20, P58H/N264H) is 0.03009 and 0.04043 and -0.04005 and 0.07079 and 0.04304 and 0.04053 and 0.04913 and 0.06845 and 0.2599 and -0.02289 and 0.03599 and 0.03797 and 0.05281 and 0.1306 and 0.05504 and 0.04257 and 0.06472 and 0.07143 and 0.03615 and 0.003946. In addition, the “Ca2+ response (delta ratio), A59H/N264H” value in test [3] (Fig.1e) came to 0.05683. In addition, the “Ca2+ response of individual cells (source data Suppl Fig1), A59H/N264H” value in test [3] (single-cell values #1-#20, A59H/N264H) was 0.3729 and -0.001931 and -0.001046 and 0.01178 and 0.01916 and -0.01828 and -0.02652 and 0.02399 and 0.0008077 and 0.2216 and -0.004754 and -0.01916 and -0.02225 and 0.2474 and 0.3157 and 0.001138 and -0.0037 and -0.007646 and -0.0005385 and 0.0279. Also, the “Ca2+ response (delta ratio), K61H/N264H” value in [4] (Fig.1e) is -0.01365. Further, in test [4] (single-cell values, K61H/N264H), the “Ca2+ response of individual cells (source data Suppl Fig1), K61H/N264H” value was -0.03782 and -0.01632 and -0.02464 and 0.009846 and -0.01781 and 0.02198 and -0.0009692 and 0.02142 and -0.009608 and -0.02934 and -0.05039 and -0.01796 and -0.007623 and -0.01945. The “Ca2+ response (delta ratio), P57H/N264H” value in test [5] (Fig.1e) was 0.01834. Moreover, in test [5] (single-cell values #1-#20, P57H/N264H), the “Ca2+ response of individual cells (source data Suppl Fig1), P57H/N264H” value is -0.01177 and -0.0082 and 0.005215 and 0.04513 and 0.01995 and 0.003931 and -0.01436 and 0.02328 and -0.02887 and -0.004769 and -0.02686 and -0.008069 and 0.003369 and 0.01493 and -0.02254 and -0.001223 and 0.3415 and -0.007623 and 0.04519 and -0.0014. Moreover, the “Ca2+ response (delta ratio), E60H/N264H” value in test [6] (Fig.1e) is reported as -0.01792. Also, the “Ca2+ response of individual cells (source data Suppl Fig1), E60H/N264H” value in test [6] (single-cell values #1-#20, E60H/N264H) is -0.0467 and -0.05411 and -0.02817 and -0.02148 and 0.004623 and 0.0091 and -0.02117 and -0.04309 and -0.01538 and -0.003069 and -0.02522 and -0.003569 and 0.01539 and -0.02995 and -0.01439 and -0.004777 and -0.04676 and -0.0003 and -0.01138. Besides, the “Ca2+ response of individual cells (source data Suppl Fig1), Vec” value in [7] was -0.01071 and 0.01858 and -0.01644 and -0.01578 and -0.0028 and -0.01812 and -0.01767 and -0.01609 and -0.0009 and -0.0156 and -0.02858 and -0.009415 and -0.001254 and -0.01445 and -0.004377 and -0.001977 and -0.0008692 and 0.006415 and 0.01396 and 0.004169. In addition, the “Ca2+ response of individual cells (source data, sheet Suppl Fig1)” value in test [8] was -0.01619 and -0.01292 and 0.01722 and -0.04921 and -0.009638 and -0.02348; in test [11] it was 0.03642 and 0.005192 and 0.02775 and -0.01323 and -0.002362 and 0.009469; in [14] it was 0.03285 and -0.01932 and -0.04406 and 0.003838 and -0.02115 and 0.02962. Further, the “Ca2+ response (delta ratio), Vec” value in [9] is -0.006595. Besides, the “Ca2+ response of individual cells (source data Suppl Fig1), A59H/A265H” value in [10] is -0.0004462 and -0.005215 and 0.006554 and -0.007815 and 0.01005 and -0.006508 and -0.02278 and 0.001031 and 0.01621 and 0.004377 and -0.02859 and 0.008423 and 0.09357 and 0.07873. Also, in [12], the “Ca2+ response (delta ratio), A59H/A265H” value came out at 0.01054. In addition, the “Ca2+ response of individual cells (source data Suppl Fig1), A59H/G266H” value in test [13] was -0.007338 and -0.001015 and -0.03149 and 0.03385 and 0.01174 and 0.008792 and -0.03335 and -0.003362 and 0.01265 and 0.02216 and 0.003731 and -0.008569 and 0.01177 and -0.002115. Moreover, the “Ca2+ response (delta ratio), A59H/G266H” value in test [15] is on record as -3.81E-05.
